{
  "source": "patent US20250332131A1",
  "about": "“COMPOSITION FOR ACTIVATING NICOTINAMIDE PHOSPHORIBOSYLTRANSFERASE” (Yuki Gosei Kogyo Co., Ltd., priority 2024, published 2025)",
  "tested_on": "miRNA contained in exosomes secreted from C2C12 cells",
  "conditions": "ratio of 1.5 or more compared to the control and signal value exceeding 100; Table 1, FIG. 5",
  "experimental": "In this example, miRNA in exosomes was analyzed by microarray.\nThe exosome solution purified in Example 2 was used for microarray analysis. The microarray experiment was outsourced to Kamakura Techno Science (Kanagawa, Japan). Based on the data obtained, samples with a ratio of 1.5 or more compared to the control and with either of the two samples with a signal value exceeding 100 were extracted as miRNAs with altered transcription levels.",
  "data": [
    {"smiles": "NCCC(=O)O", "note": "[β-alanine, 3-aminopropanoic acid]", "values": [
      {"measurement": "miRNA increased in exosomes of C2C12 cells", "value": "six RNAs were increased"}
    ]}
  ]
}
